The results in this text go back to PubChem BioAssay AID1259411 (Chemical Carcinogenesis Research Information System (CCRIS), 2018).

Active and inactive are the calls of the source. No rule for the calls is given here.

The data set has as its system rodent carcinogenicity bioassays, tumor incidence. The experiment in a line: CCRIS carcinogenicity studies. The following applies: Dose: 0, Dose: 0. The method in brief:
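Archive of carcinogenicity, mutagenicity, tumor promotion and tumor inhibition results drawn from journals, NCI reports and other sources, expert-reviewed; covers 1985-2011 and is no longer updated.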

For the molecule `Cl/C=C/CCl`, the carcinogen call (Species: MOUSE, Strain/Sex: B6C3F1/FEMALE, Route: GAVAGE, 50, 100 MG/KG BODY WT (TELONE II) IN CORN OIL 3 D/WK FOR 104 WK, 50, 100 MG/KG BODY WT (TELONE II) IN CORN OIL 3 D/WK FOR 104 WK, Tumor Site: Type of Lesion: URINARY BLADDER: TRANSITIONAL CELL CARCINOMA, LUNG: ALVEOLAR/BRONCHIOLAR ADENOMA, ALVEOLAR/BRONCHIOLAR ADENOMA OR CARCIN) is “active; positive”; the carcinogen call (Species: MOUSE, Strain/Sex: B6C3F1/FEMALE, Route: INHALATION, 5, 20, 60 PPM TECHNICAL GRADE 6 HR/D 5 D/WK FOR 2 YR (STUDY DURATION: 2 YR), 5, 20, 60 PPM TECHNICAL GRADE 6 HR/D 5 D/WK FOR 2 YR (STUDY DURATION: 2 YR)) was “inactive; negative”; the carcinogen call (Species: MOUSE, Strain/Sex: B6C3F1/FEMALE, Route: ORAL, 2.5, 25, 50 MG/KG BW IN DIET FOR 104 WK (STUDY DURATION: 104 WK), 2.5, 25, 50 MG/KG BW IN DIET FOR 104 WK (STUDY DURATION: 104 WK)) is “inactive; negative”; the carcinogen call (Species: MOUSE, Strain/Sex: B6C3F1/MALE, Route: INHALATION, 5, 20, 60 PPM TECHNICAL GRADE 6 HR/D 5 D/WK FOR 2 YR (STUDY DURATION: 2 YR), 5, 20, 60 PPM TECHNICAL GRADE 6 HR/D 5 D/WK FOR 2 YR (STUDY DURATION: 2 YR), Tumor Site: Type of Lesion: LUNG: BRONCHIOALVEOLAR ADENOMA) was “active; positive”; the carcinogen call (Species: MOUSE, Strain/Sex: B6C3F1/MALE, Route: ORAL, 2.5, 25, 50 MG/KG BW IN DIET FOR 104 WK (STUDY DURATION: 104 WK), 2.5, 25, 50 MG/KG BW IN DIET FOR 104 WK (STUDY DURATION: 104 WK)) was “inactive; negative”; the carcinogen call (Species: RAT, Strain/Sex: F344/FEMALE, Route: GAVAGE, 25, 50 MG/KG BODY WT (TELONE II) IN CORN OIL 3 D/WK FOR 104 WK, 25, 50 MG/KG BODY WT (TELONE II) IN CORN OIL 3 D/WK FOR 104 WK, Tumor Site: Type of Lesion: FORESTOMACH: SQUAMOUS CELL PAPILLOMA) is “active; positive”. Also, the carcinogen call runs as follows: (Species: RAT, Strain/Sex: F344/FEMALE, Route: INHALATION, 5, 20, 60 PPM TECHNICAL GRADE 6 HR/D 5 D/WK FOR 2 YR (STUDY DURATION: 2 YR), 5, 20, 60 PPM TECHNICAL GRADE 6 HR/D 5 D/WK FOR 2 YR (STUDY DURATION: 2 YR)) “inactive; negative”; (Species: RAT, Strain/Sex: F344/FEMALE, Route: ORAL, 2.5, 12.5, 25 MG/KG BW IN DIET FOR 104 WK (STUDY DURATION: 104 WK), 2.5, 12.5, 25 MG/KG BW IN DIET FOR 104 WK (STUDY DURATION: 104 WK), Tumor Site: Type of Lesion: LIVER: HEPATOCELLULAR ADENOMA) “active; positive”; (Species: RAT, Strain/Sex: F344/MALE, Route: GAVAGE, 25, 50 MG/KG BODY WT (TELONE II) IN CORN OIL 3 D/WK FOR 104 WK, 25, 50 MG/KG BODY WT (TELONE II) IN CORN OIL 3 D/WK FOR 104 WK, Tumor Site: Type of Lesion: FORESTOMACH: SQUAMOUS CELL PAPILLOMA, SQUAMOUS CELL PAPILLOMA OR CARCINOMA, LIVER: NEOPLASTIC NODULE, NEOPLASTIC NODULE) “active; positive”; (Species: RAT, Strain/Sex: F344/MALE, Route: INHALATION, 5, 20, 60 PPM TECHNICAL GRADE 6 HR/D 5 D/WK FOR 2 YR (STUDY DURATION: 2 YR), 5, 20, 60 PPM TECHNICAL GRADE 6 HR/D 5 D/WK FOR 2 YR (STUDY DURATION: 2 YR)) “inactive; negative”; (Species: RAT, Strain/Sex: F344/MALE, Route: ORAL, 2.5, 12.5, 25 MG/KG BW IN DIET FOR 104 WK (STUDY DURATION: 104 WK), 2.5, 12.5, 25 MG/KG BW IN DIET FOR 104 WK (STUDY DURATION: 104 WK), Tumor Site: Type of Lesion: LIVER: HEPATOCELLULAR ADENOMA) “active; positive”.
Turning to `CC(=O)Nc1ccc(-c2ccc(N(O)C(C)=O)cc2)cc1`, under “Species: RAT, Strain/Sex: STRAIN-CD/FEMALE, Route: INTRAPERITONEAL, 10, 30 UMOL/KG IN TRIOCTANOIN 2/WK FOR 4 WK (TOTAL DOSES: 13.2, 40.0 UMOL) (STUDY DURATION: 46 WK), 10, 30 UMOL/KG IN TRIOCTANOIN 2/WK FOR 4 WK (TOTAL DOSES: 13.2, 40.0 UMOL) (STUDY DURATION: 46 WK), Tumor Site: Type of Lesion: MAMMARY GLAND: FIBROADENOMA, ADENOCARCINOMA, EAR (ZYMBAL GLAND): ADENOMA OR CARCINOMA”, the carcinogen call was “active; positive”.
`C=CC(=O)OC(C)COCC(C)OCC(C)OC(=O)C=C` (stereo not given): the carcinogen call (Species: MOUSE, Strain/Sex: TG.AC/FEMALE, Route: DERMAL, 1, 5, 10 UMOL IN 200 µL ACETONE 3/WK FOR 20 WK (STUDY DURATION: 20 WK), 1, 5, 10 UMOL IN 200 µL ACETONE 3/WK FOR 20 WK (STUDY DURATION: 20 WK), Tumor Site: Type of Lesion: SKIN: PAPILLOMA) is “active; positive”.
For the molecule `Nc1cc(S(=O)(=O)O)cc2c1C(=O)/C(=N/Nc1ccc(-c3ccc(N/N=C4/C(=O)c5c(N)cc(S(=O)(=O)O)cc5C=C4S(=O)(=O)O)cc3)cc1)C(S(=O)(=O)O)=C2`, the carcinogen call is, setting by setting: (Species: RAT, Strain/Sex: F344/FEMALE, Route: ORAL, 190, 375, 750, 1500, 3000 PPM IN DIET FOR 91 D (STUDY DURATION: 93 D), 190, 375, 750, 1500, 3000 PPM IN DIET FOR 91 D (STUDY DURATION: 93 D), Tumor Site: Type of Lesion: LIVER: HEPATOCELLULAR CARCINOMA OR NEOPLASTIC NODULE, FOCI OF CELLULAR ALTERATION OR BASOPHILIC FOCI) “active; positive”; (Species: RAT, Strain/Sex: F344/MALE, Route: ORAL, 190, 375, 750, 1500, 3000 PPM IN DIET FOR 91 D (STUDY DURATION: 93 D), 190, 375, 750, 1500, 3000 PPM IN DIET FOR 91 D (STUDY DURATION: 93 D), Tumor Site: Type of Lesion: LIVER: HEPATOCELLULAR CARCINOMA OR NEOPLASTIC NODULE, FOCI OF CELLULAR ALTERATION OR BASOPHILIC FOCI) “active; positive”.
On to `O=NC(=O)CCNCCO`, for which the carcinogen call (Species: RAT, Strain/Sex: F344/FEMALE, Route: ORAL, 50 MG/L DRINKING WATER 5 D/WK FOR 50 WK (TOTAL DOSE 250 MG) (STUDY DURATION: LIFESPAN), Tumor Site: Type of Lesion: ESOPHAGUS: CARCINOMA, PAPILLOMA, TONGUE: CARCINOMA, PAPILLOMA) was “active; positive”.
For the molecule `Oc1ccc(Cl)cc1Cl`, the carcinogen call is “inactive; negative” (Species: MOUSE, Strain/Sex: B6C3F1/FEMALE, Route: ORAL, 5000, 10000 PPM IN FEED FOR 103 WK (STUDY DURATION: 104 WK), 5000, 10000 PPM IN FEED FOR 103 WK (STUDY DURATION: 104 WK)); “inactive; negative” (Species: MOUSE, Strain/Sex: B6C3F1/MALE, Route: ORAL, 5000, 10000 PPM IN FEED FOR 103 WK (STUDY DURATION: 104 WK), 5000, 10000 PPM IN FEED FOR 103 WK (STUDY DURATION: 104 WK)); “inactive; negative” (Species: RAT, Strain/Sex: F344/FEMALE, Route: ORAL, 2500, 5000 PPM IN FEED FOR 103 WK (STUDY DURATION: 104 WK), 2500, 5000 PPM IN FEED FOR 103 WK (STUDY DURATION: 104 WK)); “inactive; negative” (Species: RAT, Strain/Sex: F344/MALE, Route: ORAL, 5000, 10000 PPM IN FEED FOR 103 WK (STUDY DURATION: 104 WK), 5000, 10000 PPM IN FEED FOR 103 WK (STUDY DURATION: 104 WK)).
